This is an account of results in patent publication US6747060B2, “Non-natural galanin receptor ligands” (Kemia, Inc., priority 2002, dated 2004).

Entries after “also recorded” stand apart in the source; their conditions may differ. Read-outs that look alike come from different tables or passages of the source. Non-standard residues stand in square brackets, D forms with d. Residues, ends and D or L forms follow the SMILES beside them. *: point of attachment. Fmoc = O=C(OCC1c2ccccc2-c2ccccc21)*; AMC = Cc1cc(=O)oc2cc(N*)ccc12; Cha = N[CH](CC1CCCCC1)C(=O)O

One data set concerns the target T1, human GalR1 (Homo sapiens, UniProt P47211).
T1 sequence (P47211 1-349): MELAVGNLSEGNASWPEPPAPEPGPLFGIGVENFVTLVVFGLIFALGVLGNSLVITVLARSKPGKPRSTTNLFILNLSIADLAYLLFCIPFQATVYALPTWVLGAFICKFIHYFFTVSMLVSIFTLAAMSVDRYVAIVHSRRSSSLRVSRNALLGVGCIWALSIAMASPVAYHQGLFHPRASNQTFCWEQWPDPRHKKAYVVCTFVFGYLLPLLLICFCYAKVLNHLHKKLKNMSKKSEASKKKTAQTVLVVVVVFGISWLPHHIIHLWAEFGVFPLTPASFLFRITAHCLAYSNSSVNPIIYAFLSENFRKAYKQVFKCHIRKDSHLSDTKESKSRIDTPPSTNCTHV
The note with it: antagonists, literature reports; cited from earlier work.

In data set [1] the test system is self sustaining status epilepticus. Nature of the data set: self sustaining status epilepticus (SSSE) induced by PPS in rats. The class given is in vivo. How it is done:
The effects of intrahippocampal galnon administration was evaluated in rats. SSSE consisted of recurrent limbic seizures of varying intensity (stages 1-5), which lasted for 12-18 h after PPS was discontinued. Behavioral seizures were accompanied by high-frequency (13+Hz) and amplitude (1+mV) discharges with the duration of individual events between 30 s and 3 min. Between the seizures, ictal spikes with the amplitude of 0.8 mV and more and frequency of 3 Hz and less were continuously generated (spike frequency of 3 Hz and more was recognized as a seizure)^5.

The test system of another data set is galanin binding sites. Nature of the data set: autoradiographic [125I]-galanin binding assay on rat spinal cord sections. The note with it: rat spinal cord sections L4, L5; galnon at 1, 3 and 5 μM. As for the experimental part:
Rats were decapitated, the spinal cord lumbar segments L4 and L5 were dissected out, rapidly frozen, cut in a cryostat and processed for the autoradiographic ligand binding assay of Young and Kuhar^13, as described previously^14. Galnon was added at 1, 3 and 5 μM concentration. The sections were processed in a BAS3000 Bio-Imagine Analyzer (Fuji) and quantified and then exposed to Hyperfilm-Max X-ray film (Arnersham Pharmacia Biotech).

The test system of the next data set is PTZ-induced seizures. Description: PTZ-induced seizures in mice. As for the experimental part:
The experiments were performed on C57B1 male mice (weight 20-30 g). Animals to be treated with galanin, or M35 were anaesthetized with ketamine (100 mg/kg i.p.) and xylazine (15 mg/kg i.p.) and stereotaxically implanted i.c.v. with guide cannulae (0.6 mm internal diameter). Postoperative recovery was 3-5 days. Galanin, or M35 were injected into the lateral brain ventricle of freely moving mice by means of Hamilton microsyringe in the amount 0.5 nmol, in 0.5 μl, at a rate […]. Control animals were treated with saline.
Galnon was dissolved in the 50% DMSO in saline and administered i.p. in a dose of 2 mg/kg […] prior to PTZ injection (when the effect of galnon alone was studied) or […] after M35 injection (in co-administration studies). Control animals were treated with 50% DM50 in saline.
Seizures were induced by i.p. injection of PTZ (Research Biochemicals, Natick, Massachusetts) in a dose of 40 mg/kg (when studying the effects of galanin only, or galnon only) or 30 mg/kg (when studying the effect of M35 and galnon+M35). The animals were placed in individual Plexiglas cages and videotaped for 15 min after PTZ administration. Seizures were analyzed off-line by a unbiased investigator and quantified using the following scale: 0: no motor seizures; 1: staring, mouth, or facial movements; 2: head nodding or isolated twitches; 3: unilateral bilateral forelimb clonus; 4: rearing; 5: rearing and falling; 6: tonic extension of hind limbs or death. The latency of each behavioral seizure type and the highest seizure score were recorded. […] Statistical methods used: t-test (latency) and Mann-Whitney (seizure score).

In another data set the target is galanin receptors. Nature of the data set: [125I]-galanin displacement, equilibrium binding in rat ventral hippocampal membranes. The note with it: membranes from rat ventral hippocampus. How it is done: (§1) The mixtures of ligands and individual compounds were screened to displace [^125I]-galanin in equilibrium binding assay using membrane preparations from rat hippocampi, rich in galanin binding sites as described in detail previously^11. Effect of galnon on basal and forskolin-stimulated cAMP production were performed essentially as described by Valkna et al.^12 in membranes from rat ventral hippocampi.

The next data set concerns the target adenylate cyclase. Description: adenylate cyclase assay (basal and forskolin-stimulated cAMP production) in membranes from rat ventral hippocampi. The data set is classed as biochemical. How it is done:
as §1
(In general: cAMP levels reflect the balance of adenylyl cyclase and phosphodiesterase activity.)

Where [2] appears, read: equimolar galnon into hippocampus before M35 5 nmol, 7 min PPS.
Where [3] appears, read: galnon 1 nmol, control rats injected with scrambled PNA.

Broadly, the IC50 is the point on the concentration scale where inhibition reaches its midpoint. For the molecule dithiipin-1,1,4,4-tetroxide, the concentration for half-maximal inhibition (IC50) at human GalR1 is 0.17 µM.

For orientation: Ki means the equilibrium dissociation constant of an inhibitor or competing ligand from its target. The low end stands for higher affinity, the high end for lower affinity. Usually EC50 stands for the midpoint of the concentration-response curve. Take `Cc1cc(=O)oc2cc(NC(=O)C(CCCCN)NC(=O)C(CC3CCCCC3)NC(=O)OCC3c4ccccc4-c4ccccc43)ccc12` (stereo not drawn) [galnon, 1-[5-amino-1-(4-methyl-2-oxo-2H-chromen-7-ylcarbamoyl)-pentylcarbamoyl]-2-cyclohexyl-ethyl-carbamic acid 9H-fluoren-9-ylmethyl ester] (Fmoc-[Cha]-Lys-{AMC}; configuration not given here): the “anticonvulsant effect in the presence of GalR antagonist M35” value in data set [1] (M35 0.5 nmol pretreatment) is “attenuated; also recorded: abolished”. Further, in data set [1] (setting [2]), the “duration of SSSE” value was determined as 37 ± 8 min and the total seizure time came out at 13 ± 4 min. Moreover, the “effect on self-sustaining seizures” value in data set [1] (galnon 1 nmol, PNA1-pretreated animals (GalR1 down-regulated)) is recorded as “no effect”. For the same molecule, in data set [1] (setting [3]), the “reduction of duration of SSSE” value was 7 fold and the “reduction of total seizure time” value turned out to be 9 fold. For the same molecule, the “effect on SSSE” value in data set [1] (intrahippocampal injection 10 min after the end of PPS) was “attenuated SSSE in a dose dependent manner”. Further, the SSSE duration in data set [1] (intrahippocampal, maximal dose 5 nmol, 30 min PPS) was found to be 28 ± 8 min. In the data set on galanin binding sites, the “displacement of [125I]-galanin, autoradiographic signal” value is “significant increase in binding as compared to controls was only seen at the concentration of 5 μM”. The “effect on seizure-facilitating effect of M35” value in the data set on PTZ-induced seizures (M35 i.c.v. co-administered with galnon i.p., PTZ 30 mg/kg) was “completely abolished”. In the data set on PTZ-induced seizures (PTZ 40 mg/kg i.p., 2 mg/kg i.p. 15 min prior to PTZ, scale 0-6), this molecule gave a maximal seizure score of 1.45. Moreover, in the data set with PTZ-induced seizures (PTZ 40 mg/kg, galnon 2 mg/kg i.p.), the “anticonvulsant effect compared with galanin i.c.v. 0.5 nmol” value is given as “comparable to that of galanin”. Also, the behavioral side effects entry in the data set with PTZ-induced seizures (mice, galnon 2 mg/kg i.p.) is reported as “No obvious behavioral side effects”. In addition, the Ki on galanin receptors is 4.8 µM. At adenylate cyclase (basal, read-out: EC50, M of inhibition of adenylate cyclase activity (basal)), the EC50 is 8 µM. Further, on adenylate cyclase (forskolin stimulated, read-out: EC50, M of inhibition of adenylate cyclase activity (forskolin stimulated)), the EC50 was 10 µM.

Turning to `COC(=O)C1=C[C@@H](O)[C@@H](O)[C@H](O)[C@@H]1Oc1c(Cl)c(C)c(Cl)c2c1C(=O)[C@@]1(O2)C(OC)=CC(=O)C=C1C(=O)OC` [Sch 202596], at human GalR1, the IC50 was 1.4 µM.
